#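 Results reflect a 48-hour exposure of cells in 96-well plates to compound at five concentrations. Here, GI50 denotes the concentration required for 50% inhibition of growth.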 Activity calls are given as the source filed them. Rule as the data show it: active = GI50 up to about 1.1 µM and inactive = higher.
# Legend:
# Assay in all cases: growth of human tumour cells (NCI), 48 h
# NCI/ADR-RES = system: NCI/ADR-RES
# OVCAR-4 = system: OVCAR-4
# SK-OV-3 = system: SK-OV-3
# UACC-62 = system: UACC-62
# IGROV-1 = system: IGROV-1
# OVCAR-8 = system: OVCAR-8
# HOP-92 = system: HOP-92
# Hs-578T = system: Hs-578T
# MCF7 = system: MCF7
# DU-145 = system: DU-145
# A549 = system: A549
# SNB-19 = system: SNB-19
# SNB-75 = system: SNB-75
# KM12 = system: KM12
# HCT-116 = system: HCT-116
# UACC-257 = system: UACC-257
# MOLT-4 = system: MOLT-4
# NCI-H460 = system: NCI-H460
# SK-MEL-2 = system: SK-MEL-2
# COLO 205 = system: COLO 205
Structure (SMILES),GI50 (NCI/ADR-RES),GI50 (OVCAR-4),GI50 (SK-OV-3),GI50 (UACC-62),GI50 (IGROV-1),GI50 (OVCAR-8),GI50 (HOP-92),GI50 (Hs-578T),GI50 (MCF7),GI50 (DU-145),GI50 (A549),GI50 (SNB-19),GI50 (SNB-75),GI50 (KM12),GI50 (HCT-116),GI50 (UACC-257),GI50 (MOLT-4),GI50 (NCI-H460),GI50 (SK-MEL-2),GI50 (COLO 205)
NC(CCOCCP(=O)(O)CCC1C=CC=CC1)C(=O)O (configuration not stated),> 100 µM (inactive),> 100 µM (inactive),> 100 µM (inactive),43.8 µM (inactive),> 100 µM (inactive),> 100 µM (inactive),> 100 µM (inactive),> 100 µM (inactive),> 100 µM (inactive),> 100 µM (inactive),> 100 µM (inactive),> 100 µM (inactive),64 µM (inactive),> 100 µM (inactive),> 100 µM (inactive),> 100 µM (inactive),> 100 µM (inactive),> 100 µM (inactive),> 100 µM (inactive),> 100 µM (inactive)
CC(=O)NC1CC(C(C)(C)NC(C)=O)CC=C1C (configuration not stated),> 100 µM (inactive),> 100 µM (inactive),> 100 µM (inactive),> 100 µM (inactive),> 100 µM (inactive),> 100 µM (inactive),> 100 µM (inactive),,> 100 µM (inactive),> 100 µM (inactive),> 100 µM (inactive),> 100 µM (inactive),> 100 µM (inactive),> 100 µM (inactive),> 100 µM (inactive),> 100 µM (inactive),> 100 µM (inactive),> 100 µM (inactive),,> 100 µM (inactive)
CC1C(NNC(N)=O)Oc2cc3c(cc2C1c1ccccc1O)OCO3 (configuration not stated),,,41.4 µM (inactive),30.4 µM (inactive),26.3 µM (inactive),,16.5 µM (inactive),25.3 µM (inactive),36.8 µM (inactive),49.7 µM (inactive),31.8 µM (inactive),91 µM (inactive),27.9 µM (inactive),31.2 µM (inactive),26.2 µM (inactive),35.7 µM (inactive),30 µM (inactive),38.8 µM (inactive),35.6 µM (inactive),> 10 µM (inactive)
O=C(Nc1ccc(F)cc1)c1cc2ccc(O)cc2o/c1=N\c1ccccc1F,15.6 µM (inactive),21.3 µM (inactive),12 µM (inactive),22.6 µM (inactive),10.1 µM (inactive),13.7 µM (inactive),,26.8 µM (inactive),28.8 µM (inactive),34.4 µM (inactive),,,,26.2 µM (inactive),24.8 µM (inactive),27.6 µM (inactive),26.5 µM (inactive),18.8 µM (inactive),29.3 µM (inactive),> 100 µM (inactive)
O=C1C=CC2(O[C@@H](Cc3ccccc3)[C@H](Cc3ccccc3)O2)C(SC(=O)c2ccccc2)C1 (some centres not stated),1.07 µM (active),1.47 µM (inactive),2.75 µM (inactive),2.24 µM (inactive),1.26 µM (inactive),0.209 µM (active),1.54 µM (inactive),1.38 µM (inactive),0.568 µM (active),2.39 µM (inactive),4.22 µM (inactive),1.94 µM (inactive),1.91 µM (inactive),2.31 µM (inactive),0.158 µM (active),1.18 µM (inactive),0.19 µM (active),2.59 µM (inactive),1.66 µM (inactive),1.73 µM (inactive)
Cc1ccc(S(=O)(=O)NNC2Oc3cc4c(cc3C(c3ccccc3O)C2C)OCO4)cc1 (configuration not stated),,,21.7 µM (inactive),15.7 µM (inactive),12.4 µM (inactive),,17.1 µM (inactive),10.9 µM (inactive),14.9 µM (inactive),13 µM (inactive),8.36 µM (inactive),12.7 µM (inactive),10.9 µM (inactive),12.2 µM (inactive),10.4 µM (inactive),10.8 µM (inactive),10.4 µM (inactive),12.1 µM (inactive),9.62 µM (inactive),14.7 µM (inactive)
Cn1c(=O)ccc2c(=O)c3ccccc3oc21,> 100 µM (inactive),> 100 µM (inactive),> 100 µM (inactive),> 100 µM (inactive),> 100 µM (inactive),> 100 µM (inactive),67.6 µM (inactive),> 100 µM (inactive),,> 100 µM (inactive),> 100 µM (inactive),> 100 µM (inactive),0.029 µM (active),> 100 µM (inactive),> 100 µM (inactive),,,> 100 µM (inactive),> 100 µM (inactive),> 100 µM (inactive)
NC1C2C=CC(C2)C1C(=O)O (configuration not stated),> 100 µM (inactive),> 100 µM (inactive),> 100 µM (inactive),> 100 µM (inactive),> 100 µM (inactive),> 100 µM (inactive),> 100 µM (inactive),> 100 µM (inactive),> 100 µM (inactive),> 100 µM (inactive),> 100 µM (inactive),> 100 µM (inactive),> 100 µM (inactive),> 100 µM (inactive),> 100 µM (inactive),,> 100 µM (inactive),,> 100 µM (inactive),> 100 µM (inactive)
Nc1nc(N)c2c(CCc3ccc(C(=O)N[C@@H](CCC(=O)O)C(=O)O)cc3)ccnc2n1,< 0.0211 µM (active),,0.0628 µM (active),< 0.0169 µM (active),0.029 µM (active),< 0.01 µM (active),1.21 µM (inactive),52 µM (inactive),< 0.01 µM (active),0.055 µM (active),0.0731 µM (active),0.912 µM (active),0.323 µM (active),< 0.0283 µM (active),< 0.01 µM (active),0.257 µM (active),< 0.05 µM (active),< 0.01 µM (active),> 28.8 µM (inactive),1.27 µM (inactive)
COc1cc2c(cc1Oc1c(Oc3c(O)c(OC)cc4c3C(CC(C)C)N(C)CC4)c(OC)cc3c1C(CC(C)C)N(C)CC3)C(CC(C)C)N(C)CC2 (configuration not stated),2.38 µM (inactive),1.12 µM (inactive),1.12 µM (active),0.573 µM (active),3.02 µM (inactive),0.618 µM (active),0.465 µM (active),,0.632 µM (active),,0.429 µM (active),0.582 µM (active),0.611 µM (active),0.721 µM (active),0.643 µM (active),1.45 µM (inactive),1.03 µM (active),0.519 µM (active),0.867 µM (active),0.351 µM (active)
O=C1CC2(CCC(O)(c3ccco3)C(C(=O)c3ccco3)C2)C(=O)c2ccccc2N1 (configuration not stated),64.6 µM (inactive),17.3 µM (inactive),> 100 µM (inactive),> 100 µM (inactive),99.1 µM (inactive),86.9 µM (inactive),56.9 µM (inactive),55.1 µM (inactive),> 100 µM (inactive),> 100 µM (inactive),> 100 µM (inactive),,32.2 µM (inactive),,88.7 µM (inactive),> 100 µM (inactive),,29.5 µM (inactive),> 100 µM (inactive),> 100 µM (inactive)

# From ChEMBL document CHEMBL1201862, “PubChem BioAssay data set” (2004)
